The subject of this test is 521955-158-R2-J5-PDC complex spheroid growth. In words: Anticancer human tumor 521955-158-R2-J5-PDC patient-derived pancreatic carcinoma cell line growth inhibition [AhR]. The note with it: for viability, T/C: stronger effect = lower value; for IC50: curve of compound. An excerpt:
Multicellular complex tumor spheroid response to aryl hydrocarbon receptor antagonists in combination with a variety of drugs and investigational agents in selected tumor cell lines
The current study was undertaken to assess response to aryl hydrocarbon receptor antagonists in combination with standard-of-care drugs and investigational agents in solid tumor complex spheroid models. Complex spheroids include a stromal component modeled by human endothelial cells (HUVEC) and fibroblasts modeled by human mesenchymal stem cells (MSCs). The concentration ranges selected for each drug and investigational agent were based upon clinically achievable concentrations if the clinical Cmax of the agent was known.
Compounds. The drugs and investigational agents: BAY 2416964 (NSC825713), GNF351 (NSC835774), CH-223191 (NSC835775), CPI-455 (NSC825282), aza-TdCyd (NSC777586), decitabine (NSC127716), belinostat (NSC758774), entinostat (NSC756642), pevonedistat (NSC761192), tazemetostat (NSC777109), talazoparib (NSC765396), olaparib (NSC753686), selinexor (NSC780203), nedisertib (M3814, NSC802822), bortezomib (NSC756655), venetoclax (NSC766270), doxorubicin (NSC123127), elimusertib (BAY189344, NSC800525), ceralasertib (AZD6738, NSC777638), TAK-243 (NSC785004), alisertib (NSC759677), etoposide (NSC141540), topotecan (NSC609699), eribulin (NSC707389), gemcitabine (NSC613327), carboplatin (NSC241240), cisplatin (NSC119875), and SN-38 (NSC673596) were obtained from the National Cancer Institute (NCI) Developmental Therapeutics Program Chemical Repository (32). The FDA-approved anticancer drug set is available from the Developmental Therapeutics Program at https://dtp.cancer.gov/organization/dscb/obtaining/available plates.htm. […] The stock solutions were prepared in dimethyl sulfoxide (DMSO, Sigma-Aldrich, St. Louis, MO, cat. D2650), except for the platinum compounds which were prepared in saline (Quality Biological, Gaithersburg, MD, cat. 114-055-101), at 800-fold the tested concentration and stored at -70 degrees C prior to their use. All drugs and investigational agents were tested over a range starting from a high concentration at or near the clinical Cmax and decreasing in half-log increments. If the clinical Cmax for an agent had not been determined, the highest concentration tested was 10 microM (Table 1).
Cell Culture. All cells were maintained in an incubator at 37 degrees C and 5% CO2 with 95% humidity. The PDC lines were cultured according to standard operating procedures established by the NCI PDMR (https://pdmr.cancer.gov). Briefly, all PDCs were thawed and cultured in Matrigel-coated flasks prepared with a working solution of 1X Ham's F-12 nutrient mix, without supplementation (Invitrogen, Waltham, MA, cat. 11765054), 100 U/mL penicillin-streptomycin (Invitrogen, cat. 15140122), and 2.5% Matrigel (Corning Inc., Corning, NY, cat. 354248) for the first three passages. All PDCs were cultured in complete DMEM/F-12 media containing advanced DMEM/F-12 (Invitrogen, cat. 12634028), 4.9% defined fetal bovine serum, heat inactivated (HyClone Laboratories Inc., Logan, UT, cat. SH30070.03HI), 389 ng/mL hydrocortisone (Sigma-Aldrich, cat. H4001), 9.7 ng/mL human EGF recombinant protein (Invitrogen, cat. PHG0313), 23.4 microg/mL adenine (Sigma-Aldrich, cat. A2786), 97.3 U/mL penicillin-streptomycin (Invitrogen, cat. 15140122), 1.9 mM L-glutamine (Invitrogen, cat. 25030081), and 9.7 microM Y-27632 dihydrochloride (Tocris Bioscience, Bristol, United Kingdom, cat. 1254). The PDCs were cultured in complete DMEM/F12 media without 10 microM Y-27632 dihydrochloride for at least two passages prior to the screen. The established cell lines NCI-H1341 and […] were cultured in DMEM/F-12, HEPES (Invitrogen, cat. 11330032), 5% defined fetal bovine serum (HyClone Laboratories Inc., cat. SH30070.03), ITS premix universal culture supplement [insulin (5 microg/mL), transferrin (5 microg/mL), and selenious acid (5 ng/mL)] […]

Where “and” joins values, the source holds several entries; their conditions need not be identical. Identical values can stand only once. A value given as a limit tells only on which side of the number the result lay.
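For viability, T/C in this document: spheroids mix tumor cells with HUVEC endothelium and human MSC stroma; luminescence taken as viability surrogate after a week of drug exposure.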

Usually viability, T/C stands for the result in the treated group divided by that in the control group, in per cent. What is called IC50 is the concentration that gives 50% inhibition. For the molecule `CC(C)CC(NC(=O)C(Cc1ccccc1)NC(=O)c1cnccn1)B(O)O` (configuration not stated), the concentration for half-maximal inhibition (IC50) was 0.0165 µM and 0.0131 µM and 0.00471 µM. In addition, the viability, T/C (compound 0.000949 µM) was 93.7% and 85.5% and 84.3%. Also, the viability, T/C (compound 0.003 µM) is 94.1% and 71.8% and 78.5%. Further, the viability, T/C (compound 0.03 µM) was 1.41% and 1.04% and 0.32%. Further, the viability, T/C (compound 0.0949 µM) is 0.32% and 0.33% and 0.22%. Further, for the setting “compound 0.3 µM”, the viability, T/C was 0.33% and 0.39% (2×).
Regarding `CC1(C)CCC(CN2CCN(c3ccc(C(=O)NS(=O)(=O)c4ccc(NCC5CCOCC5)c([N+](=O)[O-])c4)c(Oc4cnc5[nH]ccc5c4)c3)CC2)=C(c2ccc(Cl)cc2)C1`, the IC50 is greater than 10 µM. In addition, where the note is “compound 0.0316 µM”, the viability, T/C was 96.5% and 101% and 99%. Also, the viability, T/C (compound 0.1 µM) was 71.9% and 97.7% and 79.6%. Besides, the viability, T/C (compound 0.316 µM) is 105% and 111% and 106%. For the same molecule, for the setting “compound 1 µM”, the viability, T/C was 90.7% and 91% and 77.8%. Besides, the viability, T/C (compound 3.16 µM) is 96% and 87.3% and 90.5%. The viability, T/C (compound 10 µM) was 73.7% and 91.8% and 83.6%.
As for `CC1COCCN1c1cc(-c2ccnn2C)c2ccnc(-c3ccn[nH]3)c2n1` (configuration not stated), the half-inhibitory concentration (IC50) was 0.0955 µM and 0.176 µM and 0.0846 µM. Further, the viability, T/C (compound 0.00316 µM) was 96.3% and 94.8% and 101%. In addition, the viability, T/C (compound 0.01 µM) was 98.2% and 92.8% and 104%. Besides, the viability, T/C (compound 0.0316 µM) was 97.8% and 84.1% and 95.1%. For the same molecule, the viability, T/C (compound 0.1 µM) is 48% and 79.2% and 42.4%. For the same molecule, the viability, T/C (compound 0.316 µM) was 15.5% and 19.4% and 16.3%. The viability, T/C (compound 1 µM) is 19.2% and 18.6% and 16%.
As to `CCN(c1cc(-c2ccc(CN3CCOCC3)cc2)cc(C(=O)NCc2c(C)cc(C)[nH]c2=O)c1C)C1CCOCC1`, the IC50 was greater than 3 µM. In addition, the viability, T/C (compound 0.00949 µM) is 104% and 116% and 106%. Besides, under “compound 0.03 µM”, the viability, T/C was 111% (2×) and 113%. Besides, the viability, T/C (compound 0.0949 µM) is 93.7% and 98.9% and 87%. For the setting “compound 0.3 µM”, the viability, T/C is 97.9% and 94.6% and 81.7%. The viability, T/C (compound 0.949 µM) was 99.9% and 70.8% and 81.8%. Moreover, for the setting “compound 3 µM”, the viability, T/C is 96.3% and 84.7% and 88%.
In the case of `CC[C@@]1(O)C(=O)OCc2c1cc1n(c2=O)Cc2cc3c(CN(C)C)c(O)ccc3nc2-1`, the IC50 was 0.0527 µM and 0.0217 µM and 0.0171 µM. The viability, T/C (compound 0.000316 µM) is 93.2% and 80.6% and 77.3%. Moreover, where the note is “compound 0.001 µM”, the viability, T/C is 90.4% and 95% and 67.7%. Besides, the viability, T/C (compound 0.00316 µM) was 80.1% and 84.2% and 84.3%. For the same molecule, for the setting “compound 0.01 µM”, the viability, T/C was 86.6% and 65.1% and 63.1%. Further, where the note is “compound 0.0316 µM”, the viability, T/C was 62.3% and 43.2% and 34.2%. The viability, T/C (compound 0.1 µM) was 33.1% and 22.1% and 23.6%.
For `CCc1c2c(nc3ccc(O)cc13)-c1cc3c(c(=O)n1C2)COC(=O)[C@]3(O)CC`, the IC50 was 0.00631 µM and 0.00613 µM and 0.00239 µM. Moreover, the viability, T/C (compound 0.000949 µM) is 73.4% and 63.5% and 74.2%. In addition, under “compound 0.003 µM”, the viability, T/C was 71% and 71.7% and 44.2%. For the same molecule, the viability, T/C (compound 0.00949 µM) was 38.3% and 39.2% and 18.2%. For the same molecule, the viability, T/C (compound 0.03 µM) was 22% and 28.9% and 12%. Also, the viability, T/C (compound 0.0949 µM) is 16.9% and 22.7% and 10%. The viability, T/C (compound 0.3 µM) was 14.9% and 13.4% and 8.11%.
Turning to `COc1cc(C2c3cc4c(cc3C(OC3OC5COC(C)OC5C(O)C3O)C3COC(=O)C23)OCO4)cc(OC)c1O` (configuration not stated), the IC50 was 1.38 µM and 0.706 µM and 0.636 µM. In addition, under “compound 0.0316 µM”, the viability, T/C is 92.5% and 85.2% and 81.7%. Moreover, the viability, T/C (compound 0.1 µM) was 98.5% and 79.4% and 77%. In addition, the viability, T/C (compound 0.316 µM) was 76.4% and 80.6% and 66.2%. Moreover, under “compound 1 µM”, the viability, T/C is 56.4% and 36.8% and 39.9%. Also, where the note is “compound 3.16 µM”, the viability, T/C was 36.9% and 23.6% and 22.1%. The viability, T/C (compound 10 µM) is 31% and 20.7% and 19.1%.
With `COc1cc(Nc2ncc3c(n2)-c2ccc(Cl)cc2C(c2c(F)cccc2OC)=NC3)ccc1C(=O)O`, the IC50 is > 10 µM and 8.54 µM. Further, the viability, T/C (compound 0.0316 µM) is 77.4% and 67.8% and 86.3%. Besides, for the setting “compound 0.1 µM”, the viability, T/C is 85.5% and 81.5% and 77.1%. The viability, T/C (compound 0.316 µM) was 58.4% and 76.3% and 50%. The viability, T/C (compound 1 µM) is 57.4% and 60% and 62%. Moreover, the viability, T/C (compound 3.16 µM) was 82.1% and 66.4% and 67%. Also, the viability, T/C (compound 10 µM) was 66.9% and 47.4% and 49.2%.
Turning to `COc1cccc2c1C(=O)c1c(O)c3c(c(O)c1C2=O)CC(O)(C(=O)CO)CC3OC1CC(N)C(O)C(C)O1` (configuration not stated), the IC50 is 0.155 µM and < 0.0316 µM. For the setting “compound 0.0316 µM”, the viability, T/C was 60.2% and 42.4% and 46.4%. Moreover, the viability, T/C (compound 0.1 µM) is 51.7% and 29.8% and 35.3%. Also, the viability, T/C (compound 0.316 µM) is 40.5% and 30.9% and 23.8%. Besides, the viability, T/C (compound 1 µM) was 2.19% and 6.39% and 4.25%. Further, where the note is “compound 3.16 µM”, the viability, T/C was 3.29% and 2.59% and 2.1%. In addition, where the note is “compound 10 µM”, the viability, T/C is 12.3% and 10.8% and 14%.

(Values after PubChem BioAssay AID1918998 (Molecular Pharmacology Branch, DTP, NCI, 2023).)
